Reference: paper PMC12669672, “Structural insights into selective and dual antagonism of EP2 and EP4 prostaglandin receptors” (The EMBO Journal, 2025)
Values joined by “and” are separate entries in the source; they are usually repeats but may differ in a detail not shown here. Equal values may be shown once. “Also recorded” adds a separate entry of the source. Read-outs that look alike come from different tables or passages of the source.

Columns and labels:
Assay type in all cases: cell-based
EP2 WT = EP2 WT (Homo sapiens, UniProt P43116); assay: GloSensor cAMP assay, antagonism of PGE2-induced cAMP; parameters: The full-length EP2 or EP4 was cloned into the pcDNA3.1 vector; FLAG (N); expressed in transfected cells; host or cells: AD293 cells; conditions: 1 h, single experiments 1st-3rd, Fig. S1A
Chain of EP2 WT (P43116 whole entry): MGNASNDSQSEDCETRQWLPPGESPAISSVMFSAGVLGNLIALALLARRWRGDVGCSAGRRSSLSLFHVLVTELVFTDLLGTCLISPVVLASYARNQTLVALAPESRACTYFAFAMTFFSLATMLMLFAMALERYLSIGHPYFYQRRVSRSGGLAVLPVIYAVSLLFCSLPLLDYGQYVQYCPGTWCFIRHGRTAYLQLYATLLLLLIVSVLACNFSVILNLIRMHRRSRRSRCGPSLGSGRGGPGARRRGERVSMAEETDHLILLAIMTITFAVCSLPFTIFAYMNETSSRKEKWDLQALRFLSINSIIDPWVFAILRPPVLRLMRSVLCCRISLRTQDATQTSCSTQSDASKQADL
Protocol: (§1) The full-length EP2 or EP4 was cloned into the pcDNA3.1 vector (Invitrogen), incorporating an N-terminal FLAG tag. AD293 cells were seeded in six-well plates containing DMEM supplemented with 10% dialyzed FBS 1 day prior to transfection. Following overnight growth, cells were transfected with a 1:1 ratio of receptor construct and GloSensor22F cAMP biosensor (Promega) plasmids.
(§2) Twenty-four hours post-transfection, the cells were transferred to CO2-independent media containing 2% GloSensor cAMP Reagent (Promega) and distributed into 384-well assay plates at a density of 4000 cells per well in 10 μL. […] The plates were then incubated at 37 °C for an additional hour before luminescence measurements were taken using an EnVision plate reader.
(§3) Data analysis was performed using GraphPad Prism software v8.0.1. A nonlinear regression analysis, employing a sigmoidal dose–response model, was conducted to determine the Emax values and half-maximum inhibitory concentrations (IC50) for each compound tested.

[1] = target: T1, constitutively active EP4 V320A (Homo sapiens, UniProt P35408, V320A); assay: GloSensor cAMP assay, inhibition of constitutive activity; conditions: for ΔpIC50: no PGE2, pIC50 mutant - pIC50 WT, mean
T1 construct: The full-length EP2 or EP4 was cloned into the pcDNA3.1 vector (Invitrogen), incorporating an N-terminal FLAG tag; expressed in transfected cells; host or cells: AD293
T1 sequence (P35408 whole entry V320A): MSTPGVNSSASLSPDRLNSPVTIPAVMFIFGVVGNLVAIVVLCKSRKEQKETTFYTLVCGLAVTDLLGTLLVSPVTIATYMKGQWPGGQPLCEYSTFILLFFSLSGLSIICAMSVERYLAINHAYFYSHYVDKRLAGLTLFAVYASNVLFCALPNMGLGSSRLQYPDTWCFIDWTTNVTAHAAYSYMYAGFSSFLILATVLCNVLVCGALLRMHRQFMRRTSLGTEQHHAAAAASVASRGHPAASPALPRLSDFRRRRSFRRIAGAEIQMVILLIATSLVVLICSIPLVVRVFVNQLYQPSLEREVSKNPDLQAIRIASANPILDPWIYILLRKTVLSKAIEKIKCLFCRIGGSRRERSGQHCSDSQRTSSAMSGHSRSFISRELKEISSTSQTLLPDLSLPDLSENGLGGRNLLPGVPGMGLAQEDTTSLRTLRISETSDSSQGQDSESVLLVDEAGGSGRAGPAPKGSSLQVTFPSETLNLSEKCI
Protocol: as §1, §2, §3

[2] = target: T2, constitutively active EP4 V72A (Homo sapiens, UniProt P35408, V72A); assay: as above; conditions: for ΔpIC50: no PGE2, pIC50 mutant - pIC50 WT, mean
T2 construct: The full-length EP2 or EP4 was cloned into the pcDNA3.1 vector (Invitrogen), incorporating an N-terminal FLAG tag; expressed in transfected cells; host or cells: AD293
T2 sequence (P35408 whole entry V72A): as the sequence (P35408 whole entry V320A) above, with V72A, A320V counted along it
Protocol: as §1, §2, §3

[3] = target: T3, constitutively active EP4 S319A (Homo sapiens, UniProt P35408, S319A); assay: as above; conditions: for ΔpIC50: no PGE2, pIC50 mutant - pIC50 WT, mean
T3 construct: The full-length EP2 or EP4 was cloned into the pcDNA3.1 vector (Invitrogen), incorporating an N-terminal FLAG tag; expressed in transfected cells; host or cells: AD293
T3 sequence (P35408 whole entry S319A): as the sequence (P35408 whole entry V320A) above, with S319A, A320V counted along it
Protocol: as §1, §2, §3

EP4 WT = target: T4, EP4 WT (Homo sapiens, UniProt P35408); assay: GloSensor cAMP assay, antagonism of PGE2-induced cAMP; conditions: for remaining activity at 10 µM / remaining activity at 1 µM / remaining activity at 0.1 µM / remaining activity at 0.01 µM / remaining activity at 0.001 µM / remaining activity at 0.0001 µM / remaining activity at 10 pM / remaining activity at 1 pM: 1 h; for remaining activity at 0.1 µM: Grapiprant log([M]) -7
T4 construct: The full-length EP2 or EP4 was cloned into the pcDNA3.1 vector; FLAG (N); expressed in transfected cells; host or cells: AD293 cells
T4 sequence (P35408 whole entry): as the sequence (P35408 whole entry V320A) above, with A320V counted along it
Protocol: as §1, §2, §3

CCc1nc2c(C)nc(C)cc2n1-c1ccc(CCNC(=O)NS(=O)(=O)c2ccc(C)cc2)cc1 [Grapiprant]
remaining activity at 10 µM (EP2 WT; read-out: % cAMP activity on EP2 (normalized to PF-04418948), ligand log([M]) -5): 90.7% | remaining activity at 1 µM (EP2 WT; read-out: % cAMP activity on EP2 (normalized to PF-04418948), ligand log([M]) -6): 105% | remaining activity at 0.1 µM (EP2 WT; read-out: % cAMP activity on EP2 (normalized to PF-04418948), ligand log([M]) -7): 107% | remaining activity at 0.01 µM (EP2 WT; read-out: % cAMP activity on EP2 (normalized to PF-04418948), ligand log([M]) -8): 113% | remaining activity at 0.001 µM (EP2 WT; read-out: % cAMP activity on EP2 (normalized to PF-04418948), ligand log([M]) -9): 115% | remaining activity at 0.0001 µM (EP2 WT; read-out: % cAMP activity on EP2 (normalized to PF-04418948), ligand log([M]) -10): 114% | remaining activity at 10 pM (EP2 WT; read-out: % cAMP activity on EP2 (normalized to PF-04418948), ligand log([M]) -11): 120% | remaining activity at 1 pM (EP2 WT; read-out: % cAMP activity on EP2 (normalized to PF-04418948), ligand log([M]) -12): 107% | IC50 [1]: 11.2 nM | remaining activity at 0.1 µM ([1]; 1 h, Grapiprant log([M]) -7.00, EP4-V320A, read-out: % cAMP activity (normalized to WT)): 7.66% | remaining activity at 0.01 µM ([1]; 1 h, Grapiprant log([M]) -8.00, EP4-V320A, read-out: % cAMP activity (normalized to WT)): 35.4% | remaining activity at 0.001 µM ([1]; 1 h, Grapiprant log([M]) -9.00, EP4-V320A, read-out: % cAMP activity (normalized to WT)): 48.1% | remaining activity at 0.0001 µM ([1]; 1 h, Grapiprant log([M]) -10.00, EP4-V320A, read-out: % cAMP activity (normalized to WT)): 61.4% | remaining activity at 10 pM ([1]; 1 h, Grapiprant log([M]) -11.00, EP4-V320A, read-out: % cAMP activity (normalized to WT)): 56.1% | remaining activity at 1 pM ([1]; 1 h, Grapiprant log([M]) -12.00, EP4-V320A, read-out: % cAMP activity (normalized to WT)): 50.8% | Grapiprant cAMP activity (∆pIC50 from EP4 WT), Mean ([1]; V320A, Mean): -0.388 | ΔpIC50 [1]: -0.39 ± 0.12 | ΔpIC50 ([1]; listed as grapiprant): reduced the potency | IC50 [2]: 18.6 nM | remaining activity at 0.1 µM ([2]; 1 h, Grapiprant log([M]) -7.00, EP4-V72A, read-out: % cAMP activity (normalized to WT)): 8.15% | remaining activity at 0.01 µM ([2]; 1 h, Grapiprant log([M]) -8.00, EP4-V72A, read-out: % cAMP activity (normalized to WT)): 28% | remaining activity at 0.001 µM ([2]; 1 h, Grapiprant log([M]) -9.00, EP4-V72A, read-out: % cAMP activity (normalized to WT)): 48.8% | remaining activity at 0.0001 µM ([2]; 1 h, Grapiprant log([M]) -10.00, EP4-V72A, read-out: % cAMP activity (normalized to WT)): 35.6% | remaining activity at 10 pM ([2]; 1 h, Grapiprant log([M]) -11.00, EP4-V72A, read-out: % cAMP activity (normalized to WT)): 41% | remaining activity at 1 pM ([2]; 1 h, Grapiprant log([M]) -12.00, EP4-V72A, read-out: % cAMP activity (normalized to WT)): 39% | Grapiprant cAMP activity (∆pIC50 from EP4 WT), Mean ([2]; V72A, Mean): -0.652 | Grapiprant cAMP activity (∆pIC50 from EP4 WT) ([2]; V72A, single experiments 1st-3rd): -0.771 and -0.507 and -0.679 | ΔpIC50 [2]: -0.65 ± 0.08 | ΔpIC50 ([2]; listed as grapiprant): reduced the potency | IC50 [3]: 16.6 nM | remaining activity at 0.1 µM ([3]; 1 h, Grapiprant log([M]) -7.00, EP4-S319A, read-out: % cAMP activity (normalized to WT)): 23.1% | remaining activity at 0.01 µM ([3]; 1 h, Grapiprant log([M]) -8.00, EP4-S319A, read-out: % cAMP activity (normalized to WT)): 84.7% | remaining activity at 0.001 µM ([3]; 1 h, Grapiprant log([M]) -9.00, EP4-S319A, read-out: % cAMP activity (normalized to WT)): 130% | remaining activity at 1 pM ([3]; 1 h, Grapiprant log([M]) -12.00, EP4-S319A, read-out: % cAMP activity (normalized to WT)): 118% | Grapiprant cAMP activity (∆pIC50 from EP4 WT), Mean ([3]; S319A, Mean): -0.598 | ΔpIC50 [3]: -0.60 ± 0.09 | ΔpIC50 ([3]; listed as grapiprant): reduced the potency | IC50 (EP4 WT): 35.5 nM | remaining activity at 10 µM (EP4 WT; Grapiprant log([M]) -5, read-out: % cAMP activity (normalized to WT)): 2.75% | remaining activity at 1 µM (EP4 WT; Grapiprant log([M]) -6, read-out: % cAMP activity (normalized to WT)): 3.71% | remaining activity at 0.1 µM (EP4 WT; read-out: % cAMP activity (normalized to WT)): 21% | remaining activity at 0.1 µM (EP4 WT; single experiments 1st-3rd, Fig. S7C, read-out: % cAMP activity (normalized to WT)): 30.1% | remaining activity at 0.01 µM (EP4 WT; Grapiprant log([M]) -8, read-out: % cAMP activity (normalized to WT)): 83.1% | remaining activity at 0.01 µM (EP4 WT; Grapiprant log([M]) -8, single experiments 1st-3rd, Fig. S7C, read-out: % cAMP activity (normalized to WT)): 88.1% | remaining activity at 0.001 µM (EP4 WT; Grapiprant log([M]) -9, read-out: % cAMP activity (normalized to WT)): 96.3% | remaining activity at 0.0001 µM (EP4 WT; Grapiprant log([M]) -10, read-out: % cAMP activity (normalized to WT)): 90.2% | remaining activity at 0.0001 µM (EP4 WT; Grapiprant log([M]) -10, single experiments 1st-3rd, Fig. S7C, read-out: % cAMP activity (normalized to WT)): 96.7% | remaining activity at 10 pM (EP4 WT; Grapiprant log([M]) -11, read-out: % cAMP activity (normalized to WT)): 97.9% | remaining activity at 10 pM (EP4 WT; Grapiprant log([M]) -11, single experiments 1st-3rd, Fig. S7C, read-out: % cAMP activity (normalized to WT)): 101% | remaining activity at 1 pM (EP4 WT; Grapiprant log([M]) -12, read-out: % cAMP activity (normalized to WT)): 103% | remaining activity at 1 pM (EP4 WT; Grapiprant log([M]) -12, single experiments 1st-3rd, Fig. S7C, read-out: % cAMP activity (normalized to WT)): 93.3% | remaining activity at 10 µM (EP4 WT; read-out: % cAMP activity EP4 (normalized to Grapiprant), ligand log([M]) -5, single experiments 1st-3rd, Fig. S1A): 2.69% | remaining activity at 1 µM (EP4 WT; read-out: % cAMP activity EP4 (normalized to Grapiprant), ligand log([M]) -6, single experiments 1st-3rd, Fig. S1A): 5.1% | remaining activity at 0.01 µM (EP4 WT; read-out: % cAMP activity EP4 (normalized to Grapiprant), ligand log([M]) -8, single experiments 1st-3rd, Fig. S1A): 94.2% | remaining activity at 0.001 µM (EP4 WT; read-out: % cAMP activity EP4 (normalized to Grapiprant), ligand log([M]) -9, single experiments 1st-3rd, Fig. S1A): 97% | remaining activity at 0.0001 µM (EP4 WT; read-out: % cAMP activity EP4 (normalized to Grapiprant), ligand log([M]) -10, single experiments 1st-3rd, Fig. S1A): 100% | remaining activity at 10 pM (EP4 WT; read-out: % cAMP activity EP4 (normalized to Grapiprant), ligand log([M]) -11, single experiments 1st-3rd, Fig. S1A): 93.5% | remaining activity at 1 pM (EP4 WT; read-out: % cAMP activity EP4 (normalized to Grapiprant), ligand log([M]) -12, single experiments 1st-3rd, Fig. S1A): 102% | cAMP activity (∆pIC50 from EP4 WT) (EP4 WT; Grapiprant, WT, single experiments 1st-3rd): 0.1372 and 0.1162 and -0.1508 | antagonism profile EP4 versus EP2 (in words) (EP4 WT; cAMP accumulation assay upon PGE2 stimulation, Appendix Fig. S1A): selective antagonists of EP2 and EP4, respectively; also recorded: strong selectivity
